Measured values reported in ChEMBL document CHEMBL4364246, “Synthesis and biological evaluation of 5-aminoethyl benzophenanthridone derivatives as DNA topoisomerase IB inhibitors” (Eur J Med Chem, 2019).

Legend:
CCRF-CEM = test: Growth inhibition of human CCRF-CEM cells incubated for 48 hrs by sulforhodamine B assay; type: functional
RPMI-8226 = test: Growth inhibition of human RPMI8226 cells incubated for 48 hrs by sulforhodamine B assay; type: functional; conditions: RPMI-8226, 48 h
EKVX = test: Growth inhibition of human EKVX cells incubated for 48 hrs by sulforhodamine B assay; type: functional
HOP-62 = test: Growth inhibition of human HOP62 cells incubated for 48 hrs by sulforhodamine B assay; type: functional; conditions: HOP-62, 48 h
HOP-92 = test: Growth inhibition of human HOP92 cells incubated for 48 hrs by sulforhodamine B assay; type: functional; conditions: HOP-92, 48 h
NCI-H23 = test: Growth inhibition of human NCI-H23 cells incubated for 48 hrs by sulforhodamine B assay; type: functional; conditions: NCI-H23, 48 h
NCI-H322M = test: Growth inhibition of human NCI-H322M cells incubated for 48 hrs by sulforhodamine B assay; type: functional
NCI-H460 = test: Growth inhibition of human NCI-H460 cells incubated for 48 hrs by sulforhodamine B assay; type: functional; conditions: NCI-H460, 48 h
NCI-H522 = test: Growth inhibition of human NCI-H522 cells incubated for 48 hrs by sulforhodamine B assay; type: functional; conditions: NCI-H522, 48 h
SF-268 = test: Growth inhibition of human SF268 cells incubated for 48 hrs by sulforhodamine B assay; type: functional; conditions: SF-268, 48 h
SF-295 = test: Growth inhibition of human SF295 cells incubated for 48 hrs by sulforhodamine B assay; type: functional; conditions: SF-295, 48 h
SNB-19 = test: Growth inhibition of human SNB19 cells incubated for 48 hrs by sulforhodamine B assay; type: functional; conditions: SNB-19, 48 h
U-251 = test: Growth inhibition of human U251 cells incubated for 48 hrs by sulforhodamine B assay; type: functional; conditions: U-251, 48 h
LOX IMVI = test: Growth inhibition of human LOXIMVI cells incubated for 48 hrs by sulforhodamine B assay; type: functional
M14 = test: Growth inhibition of human M14 cells incubated for 48 hrs by sulforhodamine B assay; type: functional; conditions: M14, 48 h
MDA-MB-435 = test: Growth inhibition of human MDA-MB-435 cells incubated for 48 hrs by sulforhodamine B assay; type: functional; conditions: MDA-MB-435, 48 h
SK-MEL-2 = test: Growth inhibition of human SK-MEL-2 cells incubated for 48 hrs by sulforhodamine B assay; type: functional; conditions: SK-MEL-2, 48 h
SK-MEL-28 = test: Growth inhibition of human SK-MEL-28 cells incubated for 48 hrs by sulforhodamine B assay; type: functional; conditions: SK-MEL-28, 48 h
SK-MEL-5 = test: Growth inhibition of human SK-MEL-5 cells incubated for 48 hrs by sulforhodamine B assay; type: functional; conditions: SK-MEL-5, 48 h
UACC-257 = test: Growth inhibition of human UACC257 cells incubated for 48 hrs by sulforhodamine B assay; type: functional; conditions: UACC-257, 48 h
UACC-62 = test: Growth inhibition of human UACC62 cells incubated for 48 hrs by sulforhodamine B assay; type: functional; conditions: UACC-62, 48 h
COLO 205 = test: Growth inhibition of human COLO205 cells incubated for 48 hrs by sulforhodamine B assay; type: functional; conditions: COLO 205, 48 h
HT-29 = test: Growth inhibition of human HT-29 cells incubated for 48 hrs by sulforhodamine B assay; type: functional; conditions: HT-29, 48 h
KM12 = test: Growth inhibition of human KM12 cells incubated for 48 hrs by sulforhodamine B assay; type: functional; conditions: KM12, 48 h
SW-620 = test: Growth inhibition of human SW620 cells incubated for 48 hrs by sulforhodamine B assay; type: functional; conditions: SW-620, 48 h
786-0 = test: Growth inhibition of human 786-0 cells incubated for 48 hrs by sulforhodamine B assay; type: functional; conditions: 786-0, 48 h
A498 = test: Growth inhibition of human A498 cells incubated for 48 hrs by sulforhodamine B assay; type: functional; conditions: A498, 48 h
ACHN = test: Growth inhibition of human ACHN cells incubated for 48 hrs by sulforhodamine B assay; type: functional
RXF 393 = test: Growth inhibition of human RXF393 cells incubated for 48 hrs by sulforhodamine B assay; type: functional; conditions: RXF 393, 48 h
SN12C = test: Growth inhibition of human SN12C cells incubated for 48 hrs by sulforhodamine B assay; type: functional
TK-10 = test: Growth inhibition of human TK10 cells incubated for 48 hrs by sulforhodamine B assay; type: functional; conditions: TK-10, 48 h
UO-31 = test: Growth inhibition of human UO31 cells incubated for 48 hrs by sulforhodamine B assay; type: functional; conditions: UO-31, 48 h
MDA-MB-231 = test: Growth inhibition of human MDA-MB-231 cells incubated for 48 hrs by sulforhodamine B assay; type: functional; conditions: MDA-MB-231, 48 h
Hs-578T = test: Growth inhibition of human Hs 578T cells incubated for 48 hrs by sulforhodamine B assay; type: functional
BT-549 = test: Growth inhibition of human BT549 cells incubated for 48 hrs by sulforhodamine B assay; type: functional; conditions: BT-549, 48 h
MDA-MB-468 = test: Growth inhibition of human MDA-MB-468 cells incubated for 48 hrs by sulforhodamine B assay; type: functional; conditions: MDA-MB-468, 48 h
OVCAR-3 = test: Growth inhibition of human OVCAR3 cells incubated for 48 hrs by sulforhodamine B assay; type: functional; conditions: OVCAR-3, 48 h
OVCAR-4 = test: Growth inhibition of human OVCAR4 cells incubated for 48 hrs by sulforhodamine B assay; type: functional; conditions: OVCAR-4, 48 h
OVCAR-5 = test: Growth inhibition of human OVCAR5 cells incubated for 48 hrs by sulforhodamine B assay; type: functional; conditions: OVCAR-5, 48 h
NCI/ADR-RES = test: Growth inhibition of human NCI/ADR-RES cells incubated for 48 hrs by sulforhodamine B assay; type: functional
SK-OV-3 = test: Growth inhibition of human SKOV3 cells incubated for 48 hrs by sulforhodamine B assay; type: functional; conditions: SK-OV-3, 48 h
PC-3 = test: Growth inhibition of human PC3 cells incubated for 48 hrs by sulforhodamine B assay; type: functional; conditions: PC-3, 48 h
[1] = tested on: Panel NCI-60 (60 carcinoma cell lines); test: Growth inhibition of human NCI60 incubated for 48 hrs by sulforhodamine B assay; type: functional
HCT-116 = test: cells; conditions: Homo sapiens, HCT-116, 72 h
DU-145 = test: cells; conditions: Homo sapiens, DU-145, 72 h
A549 = test: cells; conditions: Homo sapiens, A549, 72 h

Compound: COc1cc2c(=O)n(CCN)c3c4cc5c(cc4ccc3c2cc1OC)OCO5
- GI50 (CCRF-CEM): 150 nM
- GI50 (RPMI-8226): 257 nM
- GI50 (EKVX): 1360 nM
- GI50 (HOP-62): 399 nM
- GI50 (HOP-92): 3560 nM
- GI50 (NCI-H23): 451 nM
- GI50 (NCI-H322M): 990 nM
- GI50 (NCI-H460): 230 nM
- GI50 (NCI-H522): 87.5 nM
- GI50 (SF-268): 442 nM
- GI50 (SF-295): 279 nM
- GI50 (SNB-19): 398 nM
- GI50 (U-251): 260 nM
- GI50 (LOX IMVI): 246 nM
- GI50 (M14): 324 nM
- GI50 (MDA-MB-435): 759 nM
- GI50 (SK-MEL-2): 3010 nM
- GI50 (SK-MEL-28): 3050 nM
- GI50 (SK-MEL-5): 614 nM
- GI50 (UACC-257): 1900 nM
- GI50 (UACC-62): 278 nM
- GI50 (COLO 205): 290 nM
- GI50 (HT-29): 168 nM
- GI50 (KM12): 1100 nM
- GI50 (SW-620): 243 nM
- GI50 (786-0): 464 nM
- GI50 (A498): 1230 nM
- GI50 (ACHN): 366 nM
- GI50 (RXF 393): 929 nM
- GI50 (SN12C): 739 nM
- GI50 (TK-10): 1350 nM
- GI50 (UO-31): 350 nM
- GI50 (MDA-MB-231): 1280 nM
- GI50 (Hs-578T): 1960 nM
- GI50 (BT-549): 918 nM
- GI50 (MDA-MB-468): 157 nM
- GI50 (OVCAR-3): 826 nM
- GI50 (OVCAR-4): 782 nM
- GI50 (OVCAR-5): 1200 nM
- GI50 (NCI/ADR-RES): 1010 nM
- GI50 (SK-OV-3): 1240 nM
- GI50 (PC-3): 532 nM
- GI50 [1]: 525 nM
- GI50 (HCT-116): 290 nM
- GI50 (DU-145): 14 nM
- GI50 (A549): 980 nM

Compound: CNCCn1c(=O)c2cc(OC)c(OC)cc2c2ccc3cc4c(cc3c21)OCO4
- GI50 (CCRF-CEM): 20.1 nM
- GI50 (RPMI-8226): 76.3 nM
- GI50 (EKVX): 202 nM
- GI50 (HOP-62): 43.9 nM
- GI50 (HOP-92): 184 nM
- GI50 (NCI-H23): 90.6 nM
- GI50 (NCI-H322M): 147 nM
- GI50 (NCI-H460): 21.2 nM
- GI50 (NCI-H522): 27.4 nM
- GI50 (SF-268): 90.3 nM
- GI50 (SF-295): 34.6 nM
- GI50 (SNB-19): 116 nM
- GI50 (U-251): 39.4 nM
- GI50 (LOX IMVI): 38.9 nM
- GI50 (M14): 58.1 nM
- GI50 (MDA-MB-435): 118 nM
- GI50 (SK-MEL-2): 393 nM
- GI50 (SK-MEL-28): 573 nM
- GI50 (SK-MEL-5): 90.9 nM
- GI50 (UACC-257): 122 nM
- GI50 (UACC-62): 45.1 nM
- GI50 (COLO 205): 60.5 nM
- GI50 (HT-29): 50.8 nM
- GI50 (KM12): 238 nM
- GI50 (SW-620): 65.8 nM
- GI50 (786-0): 70.3 nM
- GI50 (A498): 127 nM
- GI50 (ACHN): 85.6 nM
- GI50 (RXF 393): 160 nM
- GI50 (SN12C): 171 nM
- GI50 (TK-10): 316 nM
- GI50 (UO-31): 104 nM
- GI50 (MDA-MB-231): 362 nM
- GI50 (Hs-578T): 904 nM
- GI50 (BT-549): 202 nM
- GI50 (MDA-MB-468): 59.9 nM
- GI50 (OVCAR-3): 166 nM
- GI50 (OVCAR-4): 154 nM
- GI50 (OVCAR-5): 183 nM
- GI50 (NCI/ADR-RES): 165 nM
- GI50 (SK-OV-3): 157 nM
- GI50 (PC-3): 112 nM
- GI50 [1]: 97.7 nM
- GI50 (HCT-116): 36 nM
- GI50 (DU-145): 2 nM
- GI50 (A549): 970 nM
